From publication PMC5282955, “Fatty acid binding profile of the liver X receptor α” (Journal of Lipid Research, 2017) come the findings set out here.

Common to all, as to type: binding
Experiment [1] deals with T1, LXRα (Homo sapiens, UniProt Q13133).
T1 construct: gene NR1H3
T1 sequence (Q13133 1-447): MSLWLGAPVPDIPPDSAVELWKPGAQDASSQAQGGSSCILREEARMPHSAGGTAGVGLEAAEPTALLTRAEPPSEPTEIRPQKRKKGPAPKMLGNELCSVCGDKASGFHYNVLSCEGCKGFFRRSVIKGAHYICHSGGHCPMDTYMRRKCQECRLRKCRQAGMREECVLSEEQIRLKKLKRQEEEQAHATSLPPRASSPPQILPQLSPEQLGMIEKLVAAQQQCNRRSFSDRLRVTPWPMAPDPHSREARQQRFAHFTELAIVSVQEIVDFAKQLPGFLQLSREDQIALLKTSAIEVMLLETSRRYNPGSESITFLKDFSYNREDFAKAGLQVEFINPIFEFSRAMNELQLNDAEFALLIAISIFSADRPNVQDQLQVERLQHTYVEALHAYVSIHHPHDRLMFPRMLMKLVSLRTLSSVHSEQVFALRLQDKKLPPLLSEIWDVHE
The experiment in a line: intrinsic aromatic fluorescence quenching (positive control), CD; LXRE reporter activation.

The target in experiment [2] is T1, LXRα. Kind of experiment: intrinsic aromatic fluorescence quenching; also displacement of BODIPY C16-CoA (Ki […]); CD.
The target of experiment [3] is T1, LXRα. The experiment is described as above. The source holds these as a separate data set.
For experiment [4], the target named is T1, LXRα. The experiment in a line: displacement of LXRα-bound BODIPY C16-CoA; CD change.
Experiment [5] addresses T1, LXRα. The experiment in a line: intrinsic aromatic fluorescence quenching; displacement Ki […]; LXRE reporter activation.
In experiment [6] the target is T1, LXRα. The experiment in a line: intrinsic aromatic fluorescence quenching; also displacement of BODIPY C16-CoA (Ki […]).
The target of experiment [7] is T1, LXRα. The experiment is described as above. This is another data set of the same source.

SMILES strings stand for the structures.

As for `C[C@H](CCCC(C)(C)O)[C@H]1CC[C@H]2[C@@H]3CC=C4C[C@@H](O)CC[C@]4(C)[C@H]3CC[C@]12C` [25-HC, 25-hydroxycholesterol], the “intrinsic aromatic fluorescence quenching (positive control), CD; LXRE reporter” value on LXRα [1] was “Binding with T-0901317 and 25-hydroxycholesterol (positive controls) yielded binding curves that were sharply saturable”.
The compound `CCCCCCCC(=O)SCCNC(=O)CCNC(=O)[C@H](O)C(C)(C)COP(=O)(O)OP(=O)(O)OC[C@H]1O[C@@H](n2cnc3c(N)ncnc32)[C@H](O)[C@@H]1OP(=O)(O)O` [C8:0-CoA, Octanoyl-CoA] yielded a Kd on LXRα [2] of 15 ± 5 nM.
As for `CCCCCCCCCC(=O)O` [C10:0, Decanoic acid], binding at LXRα [3] was characterised by a dissociation constant (Kd) of 15 ± 6 nM.
`CCCCCCCCCC(=O)SCCNC(=O)CCNC(=O)[C@H](O)C(C)(C)COP(=O)(O)OP(=O)(O)OC[C@H]1O[C@@H](n2cnc3c(N)ncnc32)[C@H](O)[C@@H]1OP(=O)(O)O` [C10:0-CoA, Decanoyl-CoA] registered a Ki on LXRα [4] of 7 ± 3 nM.
In turn, `CCCCCCCCCCCC(=O)O` [C12:0, Lauric acid] came in with a Kd on LXRα [5] of 11 ± 4 nM.
`CCCCCCCCCCCC(=O)SCCNC(=O)CCNC(=O)[C@H](O)C(C)(C)COP(=O)(O)OP(=O)(O)OC[C@H]1O[C@@H](n2cnc3c(N)ncnc32)[C@H](O)[C@@H]1OP(=O)(O)O` [C12:0-CoA, Lauroyl-CoA] gave a Kd at LXRα [6] of 18 ± 8 nM.
At LXRα [7], `CCCCCCCCCCCCCCCC(=O)SCCNC(=O)CCNC(=O)[C@H](O)C(C)(C)COP(=O)(O)OP(=O)(O)OC[C@H]1O[C@@H](n2cnc3c(N)ncnc32)[C@H](O)[C@@H]1OP(=O)(O)O` [C16:0-CoA, Palmitoyl-CoA] returned an equilibrium dissociation constant (Kd) of 14 ± 7 nM.

For orientation: Kd means the constant that tells how readily two partners part at equilibrium. Read a low Kd as a tighter complex. By Ki is commonly meant a measure of affinity in units of concentration, obtained from inhibition or displacement. A higher Ki goes with lower affinity.
